Results published in patent publication US20250361490A1, “COMPOSITION AND METHOD FOR CRYOPRESERVATION OF MITOCHONDRIA” (cellvie AG, priority 2022, published 2025).

Tested on: isolated mitochondria from human cardiac fibroblast (HCF) cells
Experiment: Mitochondrial membrane potential assay (MitoTracker Red CMXRos / MitoTracker Green FM staining)
Format: cell-based
Details: single cryoprotectant at 5%, 10%, 20% (v/v) in trehalose-based isolation buffer; frozen on dry ice, thawed 37° C.; normalized to non-frozen control
Method: Procedure: Isolated mitochondria in the form of pellets were resuspended in two different isolation buffers containing respectively either 300 mM sucrose or 300 mM trehalose and then frozen in 1.5 ml Eppendorf tubes by placing them either in liquid nitrogen for approximately 1 minute or on dry ice for approximately 3 minutes. For thawing, the tubes were placed in a 37° C. water bath until the entire sample was thawed, and then immediately transferred on ice.
To assess the mitochondrial membrane potential, the isolated mitochondria were resuspended either in the sucrose-containing isolation buffer or in the trehalose-containing isolation buffer at 1 mg/ml, and 15 μg of mitochondrial suspension were used for each sample. Both non-frozen mitochondria and mitochondria frozen and thawed according to procedure described under section 2.2 were stored on ice until use, e.g., stored for a period of 5 minutes to maximum 60 minutes, preferably for a few minutes (e.g., for a period of maximum 15 minutes, such as 5 minutes or 10 minutes). For Mitotracker Red CMXRos/Mitotracker Green FM staining, a labelling solution was prepared, by adding 200 nM MitoTracker Red CMxROS and 200 nM MitoTracker Green FM (Thermo Fisher) in the isolation buffer. The isolated mitochondria were then suspended in 1 ml of the labelling solution, vortexed and incubated for 15 minutes in a 37° C. incubator. Mitochondria were sedimented by centrifugation at 9500 g for 5 minutes at 4° C., washed once with the respective isolation buffer, and resuspended in the isolation buffer at a concentration of 1 mg/ml. […] MitoTracker Red or MitoTracker Green signal was quantified using Keyence BZ-800 Analyzer software, integrated brightness per image was taken for calculations and averaged between images taken from one sample.
The effect of cryoprotectant addition on maintaining integrity of the inner mitochondrial membrane was studied using MitoTracker staining assay, as described in Example 2.3. […] Alle frozen samples were thawed in a 37° C. water bath and analyzed by MitoTracker staining.

SMILES	integrity of the inner mitochondrial membrane (MitoTracker Red staining)
O=C(O)[C@@H]1CCCN1 [CRYO6, L-Proline]	preserve mitochondria inner membrane integrity
OC[C@H]1O[C@@](CO)(O[C@H]2O[C@H](CO)[C@@H](O)[C@H](O)[C@H]2O)[C@@H](O)[C@@H]1O [CRYO25, D-(+)-Sucrose]	preserve mitochondria inner membrane integrity
O.O=C[C@H](O)[C@@H](O)[C@H](O)[C@H](O)CO [CRYO33, D-(+)-Glucose monohydrate]	preserve mitochondria inner membrane integrity
